How the values were obtained:
Format in all cases: in vivo
[1] = test system: nutsedge, yellow (yellow nutsedge, Cyperus esculentus); assay: Test C preemergence; settings: scale 0 to 100, 0 no effect, 100 complete control
Outline: (§1)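 Assessment: visual, 13–15 d after treatment, 0 (no effect) to 100 (complete control) relative to controls. Treatment: preemergence to seeds in loam-sand soil, or postemergence to 1- to 4-leaf plants in peat-based medium. Formulation: non-phytotoxic solvent mixture with surfactant.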

[2] = test system: blackgrass (Alopecurus myosuroides); assay: Test C preemergence; settings: scale 0 to 100, 0 no effect, 100 complete control
Outline: as §1

[3] = test system: Galium (catchweed bedstraw, Galium aparine); assay: Test C preemergence; settings: scale 0 to 100, 0 no effect, 100 complete control
Outline: as §1

[4] = test system: morningglory (Ipomoea coccinea); assay: Test C preemergence; settings: scale 0 to 100, 0 no effect, 100 complete control
Outline: as §1

[5] = test system: lambsquarters (Chenopodium album); assay: Test C preemergence; settings: scale 0 to 100, 0 no effect, 100 complete control
Outline: as §1

[6] = test system: crabgrass, large (large crabgrass, Digitaria sanguinalis); assay: Test C preemergence; settings: scale 0 to 100, 0 no effect, 100 complete control
Outline: as §1

[7] = test system: soybean (Glycine max); assay: Test C preemergence; settings: scale 0 to 100, 0 no effect, 100 complete control
Outline: as §1

[8] = test system: corn (Zea mays); assay: Test C preemergence; settings: scale 0 to 100, 0 no effect, 100 complete control
Outline: as §1

[9] = test system: velvetleaf (Abutilon theophrasti); assay: Test C preemergence; settings: scale 0 to 100, 0 no effect, 100 complete control
Outline: as §1

[10] = test system: barnyardgrass (Echinochloa crus-galli); assay: Test C preemergence; settings: scale 0 to 100, 0 no effect, 100 complete control
Outline: as §1

[11] = test system: johnsongrass (Sorghum halepense); assay: Test C preemergence; settings: scale 0 to 100, 0 no effect, 100 complete control
Outline: as §1

[12] = test system: ryegrass, Italian (Italian ryegrass, Lolium multiflorum); assay: Test C preemergence; settings: scale 0 to 100, 0 no effect, 100 complete control
Outline: as §1

[13] = test system: ragweed (common ragweed, Ambrosia elatior); assay: Test C preemergence; settings: scale 0 to 100, 0 no effect, 100 complete control
Outline: as §1

[14] = test system: wheat (winter wheat, Triticum aestivum); assay: Test C preemergence; settings: scale 0 to 100, 0 no effect, 100 complete control
Outline: as §1

[15] = test system: oilseed rape (Brassica napus); assay: Test C preemergence; settings: scale 0 to 100, 0 no effect, 100 complete control
Outline: as §1

[16] = test system: pigweed (Amaranthus retroflexus); assay: Test C preemergence; settings: scale 0 to 100, 0 no effect, 100 complete control
Outline: as §1

[17] = test system: velvetleaf (Abutilon theophrasti); assay: Test G Post-Emergence Protocol
Description: Seeds of corn (Zea mays), giant foxtail (Setaria faberi), barnyardgrass (Echinochloa crus-galli), ivy-leaved morning glory (Ipomoea hederacea), redroot pigweed (Amaranthus retroflexus) and velvetleaf (Abutilon theophrasti) were sown in standard soil in pots. After cultivation for 8 days under controlled conditions in a glasshouse (at 24/16° C., day/night; 14 hours light; 65% humidity), the plants were sprayed with an aqueous spray solution derived from the formulation of the technical active ingredient in acetone/water (50:50) solution containing 0.5% Tween 20 (polyoxyethylene sorbitan monolaurate, CAS RN 9005-64-5) to give a final dose of 15.625, 62.5 or 250 g/ha of test compound.
The test plants were then grown on under controlled conditions in a glasshouse (at 24/16° C., day/night; 14 hours light; 65% humidity) and watered twice daily. After 13 days the test was evaluated (100=total damage to plant; 0=no damage to plant). A dash (-) means no test result.

CN1CC(c2cccc(OC(F)(F)C(F)F)c2)C(C(=O)Nc2ccc(F)c(F)c2F)C1=O (stereo not drawn) [Compound 429]
40: Plant response rating, Corn ([8]; 62 g ai/ha) | Plant response rating, Velvetleaf ([9]; 62 g ai/ha) | Plant response rating, Ragweed ([13]; 62 g ai/ha)
70: Plant response rating, Blackgrass ([2]; 31 g ai/ha) | Plant response rating, Wheat ([14]; 125 g ai/ha)
35: Plant response rating, Morningglory ([4]; 31 g ai/ha)
0: Plant response rating, Nutsedge, Yellow ([1]; 31 g ai/ha) | Plant response rating, Nutsedge, Yellow ([1]; 62 g ai/ha) | Plant response rating, Nutsedge, Yellow ([1]; 125 g ai/ha) | Plant response rating, Nutsedge, Yellow ([1]; 250 g ai/ha) | Plant response rating, Soybean ([7]; 125 g ai/ha) | Plant response rating, Corn ([8]; 31 g ai/ha) | Plant response rating, Ragweed ([13]; 31 g ai/ha)
90: Plant response rating, Blackgrass ([2]; 62 g ai/ha) | Plant response rating, Blackgrass ([2]; 125 g ai/ha) | Plant response rating, Corn ([8]; 250 g ai/ha) | Plant response rating, Johnsongrass ([11]; 250 g ai/ha) | Plant response rating, Oilseed Rape ([15]; 125 g ai/ha) | Plant response rating, Oilseed Rape ([15]; 250 g ai/ha) | Plant response rating, Pigweed ([16]; 125 g ai/ha)
20: Plant response rating, Morningglory ([4]; 125 g ai/ha)
30: Plant response rating, Morningglory ([4]; 62 g ai/ha) | Plant response rating, Velvetleaf ([9]; 125 g ai/ha)
95: Plant response rating, Blackgrass ([2]; 250 g ai/ha) | Plant response rating, Crabgrass, Large ([6]; 31 g ai/ha) | Plant response rating, Barnyardgrass ([10]; 62 g ai/ha) | Plant response rating, Barnyardgrass ([10]; 125 g ai/ha) | Plant response rating, Johnsongrass ([11]; 62 g ai/ha) | Plant response rating, Johnsongrass ([11]; 125 g ai/ha)
10: Plant response rating, Soybean ([7]; 250 g ai/ha)
75: Plant response rating, Lambsquarters ([5]; 62 g ai/ha) | Plant response rating, Lambsquarters ([5]; 125 g ai/ha) | Plant response rating, Johnsongrass ([11]; 31 g ai/ha) | Plant response rating, Ragweed ([13]; 125 g ai/ha) | Plant response rating, Ragweed ([13]; 250 g ai/ha) | Plant response rating, Pigweed ([16]; 31 g ai/ha)
80: Plant response rating, Oilseed Rape ([15]; 31 g ai/ha) | Plant response rating, Oilseed Rape ([15]; 62 g ai/ha)
98: Plant response rating, Crabgrass, Large ([6]; 62 g ai/ha) | Plant response rating, Crabgrass, Large ([6]; 125 g ai/ha) | Plant response rating, Crabgrass, Large ([6]; 250 g ai/ha) | Plant response rating, Barnyardgrass ([10]; 250 g ai/ha)
45: Plant response rating, Velvetleaf ([9]; 250 g ai/ha)
65: Plant response rating, Corn ([8]; 125 g ai/ha) | Plant response rating, Ryegrass, Italian ([12]; 250 g ai/ha)
85: Plant response rating, Lambsquarters ([5]; 250 g ai/ha) | Plant response rating, Barnyardgrass ([10]; 31 g ai/ha) | Plant response rating, Ryegrass, Italian ([12]; 62 g ai/ha) | Plant response rating, Ryegrass, Italian ([12]; 125 g ai/ha) | Plant response rating, Pigweed ([16]; 62 g ai/ha)
60: Plant response rating, Morningglory ([4]; 250 g ai/ha) | Plant response rating, Lambsquarters ([5]; 31 g ai/ha) | Plant response rating, Wheat ([14]; 62 g ai/ha) | Plant response rating, Wheat ([14]; 250 g ai/ha)
100: Plant response rating, Galium ([3]; 31 g ai/ha) | Plant response rating, Galium ([3]; 62 g ai/ha) | Plant response rating, Galium ([3]; 125 g ai/ha) | Plant response rating, Galium ([3]; 250 g ai/ha) | Plant response rating, Pigweed ([16]; 250 g ai/ha)

CN1C[C@H](c2ccc(C(F)(F)F)cc2)[C@@H](C(=O)Nc2cccc(F)n2)C1=O [Compound 1400]
10: Velvetleaf damage rating ([17]; 15.625 g ai/ha, evaluated after 13 days (100=total damage to plant; 0=no damage to plant)) | Velvetleaf damage rating (100=total damage to plant; 0=no damage to plant) ([17]; 62.5 g ai/ha, evaluated after 13 days)
30: damage to plant, Velvetleaf (100=total damage to plant; 0=no damage to plant) ([17]; 250 g ai/ha, evaluated after 13 days)

CN1C[C@H](c2cccc(C(F)(F)F)c2)[C@@H](C(=O)Nc2cccnc2F)C1=O [Compound 1397]
0%: pest or weed control at 15.625 g/ha ([17]; Abutilon theophrasti, post-emergence, 312 h, 15.625 g ai/ha, evaluated after 13 days (100=total damage to plant; 0=no damage to plant), read-out: Velvetleaf damage rating)
40%: pest or weed control at 250 g/ha ([17]; Abutilon theophrasti, post-emergence, 312 h, 250 g ai/ha, evaluated after 13 days, read-out: damage to plant, Velvetleaf (100=total damage to plant; 0=no damage to plant))
10%: pest or weed control at 62.5 g/ha ([17]; Abutilon theophrasti, post-emergence, 312 h, 62.5 g ai/ha, evaluated after 13 days, read-out: Velvetleaf damage rating (100=total damage to plant; 0=no damage to plant))

CN1CC(c2cccc(OC(F)(F)C(F)F)c2)C(C(=O)Nc2ccccc2C(F)(F)F)C1=O (stereo not drawn) [Compound 431]
50: Plant response rating, Lambsquarters ([5]; 125 g ai/ha) | Plant response rating, Corn ([8]; 125 g ai/ha) | Plant response rating, Ragweed ([13]; 31 g ai/ha)
60: Plant response rating, Blackgrass ([2]; 31 g ai/ha) | Plant response rating, Ragweed ([13]; 250 g ai/ha) | Plant response rating, Oilseed Rape ([15]; 62 g ai/ha) | Plant response rating, Pigweed ([16]; 62 g ai/ha)
35: Plant response rating, Corn ([8]; 62 g ai/ha)
30: Plant response rating, Velvetleaf ([9]; 250 g ai/ha)
40: Plant response rating, Lambsquarters ([5]; 62 g ai/ha) | Plant response rating, Velvetleaf ([9]; 125 g ai/ha) | Plant response rating, Ragweed ([13]; 62 g ai/ha) | Plant response rating, Ragweed ([13]; 125 g ai/ha) | Plant response rating, Pigweed ([16]; 31 g ai/ha)
5: Plant response rating, Wheat ([14]; 62 g ai/ha)
95: Plant response rating, Galium ([3]; 31 g ai/ha) | Plant response rating, Barnyardgrass ([10]; 62 g ai/ha) | Plant response rating, Barnyardgrass ([10]; 125 g ai/ha)
90: Plant response rating, Blackgrass ([2]; 125 g ai/ha) | Plant response rating, Galium ([3]; 62 g ai/ha) | Plant response rating, Galium ([3]; 250 g ai/ha) | Plant response rating, Barnyardgrass ([10]; 31 g ai/ha) | Plant response rating, Johnsongrass ([11]; 250 g ai/ha) | Plant response rating, Wheat ([14]; 250 g ai/ha) | Plant response rating, Oilseed Rape ([15]; 250 g ai/ha)
85: Plant response rating, Blackgrass ([2]; 62 g ai/ha) | Plant response rating, Johnsongrass ([11]; 125 g ai/ha) | Plant response rating, Oilseed Rape ([15]; 125 g ai/ha) | Plant response rating, Pigweed ([16]; 250 g ai/ha)
75: Plant response rating, Johnsongrass ([11]; 62 g ai/ha) | Plant response rating, Pigweed ([16]; 125 g ai/ha)
70: Plant response rating, Johnsongrass ([11]; 31 g ai/ha) | Plant response rating, Ryegrass, Italian ([12]; 250 g ai/ha) | Plant response rating, Wheat ([14]; 125 g ai/ha)
15: Plant response rating, Ryegrass, Italian ([12]; 125 g ai/ha)
65: Plant response rating, Lambsquarters ([5]; 250 g ai/ha) | Plant response rating, Corn ([8]; 250 g ai/ha)
10: Plant response rating, Morningglory ([4]; 62 g ai/ha) | Plant response rating, Morningglory ([4]; 125 g ai/ha) | Plant response rating, Morningglory ([4]; 250 g ai/ha) | Plant response rating, Lambsquarters ([5]; 31 g ai/ha) | Plant response rating, Ryegrass, Italian ([12]; 62 g ai/ha) | Plant response rating, Oilseed Rape ([15]; 31 g ai/ha)
0: Plant response rating, Nutsedge, Yellow ([1]; 31 g ai/ha) | Plant response rating, Nutsedge, Yellow ([1]; 62 g ai/ha) | Plant response rating, Nutsedge, Yellow ([1]; 125 g ai/ha) | Plant response rating, Nutsedge, Yellow ([1]; 250 g ai/ha) | Plant response rating, Morningglory ([4]; 31 g ai/ha) | Plant response rating, Soybean ([7]; 125 g ai/ha) | Plant response rating, Corn ([8]; 31 g ai/ha)
25: Plant response rating, Velvetleaf ([9]; 62 g ai/ha)
98: Plant response rating, Blackgrass ([2]; 250 g ai/ha) | Plant response rating, Crabgrass, Large ([6]; 31 g ai/ha) | Plant response rating, Barnyardgrass ([10]; 250 g ai/ha)
100: Plant response rating, Galium ([3]; 125 g ai/ha) | Plant response rating, Crabgrass, Large ([6]; 62 g ai/ha) | Plant response rating, Crabgrass, Large ([6]; 125 g ai/ha) | Plant response rating, Crabgrass, Large ([6]; 250 g ai/ha)

From patent US12077503B2, “Substituted cyclic amides and their use as herbicides” (FMC CORPORATION, priority 2015, dated 2024)
